Results as given in article PMC9781827, “Isolation and Identification of Anti-Inflammatory Peptide from Goose Blood Hydrolysate to Ameliorate LPS-Mediated Inflammation and Oxidative Stress in RAW264.7 Macrophages” (Molecules, 2022).
Where “and” joins values, the source holds several entries; their conditions need not be identical. Identical values can stand only once.

How the values were obtained:
Type in all cases: cell-based
[1] = test system: TNF-α; experiment: TNF-α level by ELISA in culture medium, model of LPS-mediated RAW264.7 macrophage inflammation; settings: LPS group: LPS (1.0 μg/mL) alone, 24 h; mean ± S.D., n = 3
Description: (§1) The anti-inflammatory activity of the peptides was determined according to the methods of a previous study. The anti-inflammatory activity of different fractions was evaluated by measuring the levels of the inflammatory cytokines (TNF-α, IL-1β and IL-6) in a model of LPS-induced macrophage inflammation with ELISA kits (Jiangsu Enzyme marker Biotechnology Co., Ltd., Yancheng, China). […] A 20 mmol/L Tris-HCl (pH 8.0) solution was used as the start buffer and 20 mmol/L Tris-HCl/1 mol/L NaCl (pH 8.0) was used as elution buffer. Elution program: (1) wash with 5 column volumes of starting buffer; (2) elute with 10 column volumes of 50% elution buffer and 50% start buffer; (3) elute with 5 column volumes of 100% elution buffer. The above flow rates were 5 mL/min. The fractions were detected at 280 nm by an ultraviolet detector and collected by an automatic fraction collector.
(§2) The method of RAW264.7 macrophage culture and treatments were based on the study of Li et al.. […] Macrophages from passages 5 to 10 were selected to seed on 96-well culture plates at a density of 4 × 10^5 cells/well and cultured with different concentrations of LPS (0.5 μg/mL, 1.0 μg/mL and 2.0 μg/mL) for 24 h. The optimal concentration of LPS for inducing inflammation in the RAW264.7 macrophage was ensured according to cell viability. […] The ability of GBP to protect RAW264.7 macrophages was evaluated. […]

[2] = test system: ROS; experiment: ROS level in LPS-mediated RAW264.7 macrophages (DCFH-DA probe); settings: stimulation with LPS alone; mean ± S.D., n = 3
Description: (§3) The culture medium was collected and centrifuged at 3000× g for 10 min. Then, the inflammatory cytokines levels of TNF-α (MB-50051A), IL-1β (MB-50064B) and IL-6 (MB-50054A) in the culture medium were determined with ELISA kits (Jiangsu Enzyme marker Biotechnology Co., Ltd., Yancheng, China). […] (7) Add 50 μL of stop solution to each well, and measure its absorbance value at 450 nm wavelength. The activities of SOD, GSH-Px and the levels of ROS and Nitric oxide (NO) in macrophages were determined with spectrophotometric kits. […] The absorbance value of miscible liquid was measured at 450 nm wavelength by a multifunctional microplate reader; GSH-Px: 0.2 mL of sample was mixed with 0.2 mL GSH-Px (1 mmol/L) and performed at 37 °C for 5 min. […] The absorbance value was measured at 412 nm wavelength by a multifunctional microplate reader; ROS: DCFH-DA probe was added directly to serum-free medium: DCFH-DA was generally diluted with serum-free medium at a final concentration of 10 µM at 1:1000. […] In general, obvious green fluorescence can be observed in positive control cells after 20 min of stimulation. […] It can also be detected according to FITC fluorescence detection conditions. The results were expressed as fluorescence values.

[3] = test system: NO; experiment: NO level in LPS-mediated RAW264.7 macrophages culture medium (spectrophotometric kit); settings: LPS group (CTRL 6.47 ± 1.29), mean ± S.D., n = 3
Description: as §3

[4] = test system: IL-1β; experiment: IL-1β level by ELISA in culture medium, model of LPS-mediated RAW264.7 macrophage inflammation; settings: LPS group: LPS (1.0 μg/mL) alone, 24 h; mean ± S.D., n = 3
Description: as §1, §2

## lipopolysaccharide [LPS]
[1]
  level of TNF-α: 271.35 ± 17.35 pg/mL and 273.77 ± 11.93 pg/mL
[2]
  levels of ROS: 61.96 ± 2.27 U/mg prot
[3]
  level of NO: 28.63 ± 2.48 μM/L
[4]
  level of IL-1β: 485.75 ± 50.29 pg/mL
